Test results published in PubChem BioAssay (NCI).
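Each compound was tested at five concentrations against cells in 96-well plates for 48 hours. GI50 is the concentration that inhibits growth by half. TGI is the concentration that stops growth completely.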

Columns and labels:
Assay in all cases: NCI tumour cell line growth inhibition, 48 h
CAKI-1 renal = system: CAKI-1 renal
CCRF-CEM leukemia = system: CCRF-CEM leukemia
KM12 colon = system: KM12 colon
M14 melanoma = system: M14 melanoma
NCI-H460 lung = system: NCI-H460 lung
SK-MEL-5 melanoma = system: SK-MEL-5 melanoma
SNB-19 CNS = system: SNB-19 CNS
UO-31 renal = system: UO-31 renal
EKVX NSCLC = system: EKVX NSCLC
MCF7 breast = system: MCF7 breast

Row | SMILES | TGI (CAKI-1 renal) [µM] | TGI (CCRF-CEM leukemia) [µM] | TGI (KM12 colon) [µM] | TGI (M14 melanoma) [µM] | TGI (NCI-H460 lung) [µM] | TGI (SK-MEL-5 melanoma) [µM] | TGI (SNB-19 CNS) [µM] | TGI (UO-31 renal) [µM] | TGI (EKVX NSCLC) [µM] | TGI (MCF7 breast) [µM] | GI50 (CAKI-1 renal) [µM] | GI50 (CCRF-CEM leukemia) [µM] | GI50 (EKVX NSCLC) [µM] | GI50 (KM12 colon) [µM] | GI50 (M14 melanoma) [µM] | GI50 (MCF7 breast) [µM] | GI50 (NCI-H460 lung) [µM] | GI50 (SK-MEL-5 melanoma) [µM] | GI50 (UO-31 renal) [µM] | GI50 (SNB-19 CNS) [µM]
1 | Cc1ccc(S(=O)(=O)n2c3ccc(Br)cc3c3nc4ccccc4nc32)cc1 | > 100 | > 100 | > 100 | > 100 | > 100 | > 100 | > 100 | > 100 | – | – | – | – | – | – | – | – | – | – | – | –
2 | CCOc1ccc(N/C(=C(/C(Cl)=C(/Cl)N(CC)CC)[N+](=O)[O-])n2nnc3ccccc32)cc1 | 26.9 | > 100 | 26.3 | 79 | > 100 | – | > 100 | 45.2 | 69.6 | > 100 | – | – | – | – | – | – | – | – | – | –
3 | N#CC1(C#N)NC(c2cccs2)C(C#N)(C#N)NC1c1cccs1 (stereo not drawn) | > 100 | 64.3 | > 100 | > 100 | > 100 | 74.2 | > 100 | > 100 | > 100 | 51.8 | – | – | – | – | – | – | – | – | – | –
4 | O=C1NC(Nc2ccccc2)=NC(C(F)(F)F)(C(F)(F)F)N1 | – | > 100 | > 100 | 83.5 | > 100 | 79.6 | – | > 100 | > 100 | > 100 | – | – | – | – | – | – | – | – | – | –
5 | Cc1cc(F)ccc1S(=O)(=O)Nc1cc(-c2c(O)ccc3ccccc23)c(O)c2ccccc12 | 10.9 | 16.6 | 4.02 | 5.4 | 11.4 | 3.52 | – | 13.3 | 7.45 | 25.6 | 2.5 | 3.26 | 1.93 | 1.93 | 2.06 | 2.42 | 2.92 | 1.77 | 2.38 | –
6 | CC1CCCC2(CC[N+](C)(CCC[N+](C)(C)C)CC2)C1 (stereo not drawn) | > 100 | – | > 100 | > 100 | > 100 | > 100 | > 100 | > 100 | > 100 | > 100 | – | – | – | – | – | – | – | – | – | –
7 | C[C@H](NC(=O)C(Cc1ccccc1)(Cc1ccc(O)cn1)NC(=O)c1ccccc1)c1ccccc1 (stereo partly drawn) | 90.5 | > 100 | 49.4 | 29.4 | – | 33.7 | 39.4 | 29.1 | 34.2 | 75.5 | – | – | – | – | – | – | – | – | – | –
8 | Nc1ccc(S(=O)(=O)c2ccc(NCN3C(=O)NC(=O)C(=O)C3=O)cc2)cc1 | > 100 | > 100 | > 100 | > 100 | > 100 | > 100 | > 100 | > 100 | > 100 | – | – | – | – | – | – | – | – | – | – | –
9 | COc1cc2ccc(=O)oc2cc1O | 401 | 328 | > 625 | – | 139 | 302 | 432 | 183 | 226 | 476 | – | – | – | – | – | – | – | – | – | –
10 | CN(C)C(=O)OC1C(=O)N(C)c2ccc(Cl)cc2C2(c3ccccc3)N1C2(Cl)Cl (stereo not drawn) | > 100 | > 100 | > 100 | > 100 | > 100 | > 100 | – | > 100 | > 100 | – | – | – | – | – | – | – | – | – | – | –
11 | COc1ccc(N2C(=O)CC(=O)N(C(=O)COc3ccc(OCC(=O)N4C(=O)CC(=O)N(c5ccc(OC)cc5)C4=S)cc3)C2=S)cc1 | 30.3 | – | 32.6 | > 100 | > 100 | > 100 | > 100 | > 100 | > 100 | > 100 | – | – | – | – | – | – | – | – | – | –
12 | Cc1cc(C)nc(SC2=C(Nc3ccc(C)c(Cl)c3)C(=O)N(Cc3ccccc3)C2=O)n1 | – | – | > 160 | > 160 | > 160 | – | > 160 | > 160 | – | – | – | – | – | > 160 | > 160 | – | > 160 | – | > 160 | > 160
13 | COc1c(O)c(C=O)c2c(O)c(-c3c(C)cc4c(C(C)C)c(OC)c(O)c(C=O)c4c3O)c(C)cc2c1C(C)C | 16.9 | 37.6 | 16 | 22.2 | 16.1 | 22.7 | 16.5 | 11.1 | 17.7 | – | – | – | – | – | – | – | – | – | – | –
14 | O=c1cc(N2CCCC2)[nH]c(=O)n1Cc1ccccc1 | > 100 | > 100 | > 100 | > 100 | > 100 | > 100 | > 100 | – | > 100 | > 100 | – | – | – | – | – | – | – | – | – | –
15 | C/C=C/c1cc(=O)c([C@@H]2OC(=O)c3cc(OC)cc(OC)c32)co1 | > 100 | > 100 | > 100 | > 100 | > 100 | > 100 | > 100 | > 100 | > 100 | – | – | – | – | – | – | – | – | – | – | –
16 | NC(=O)c1cccc([N+](=O)[O-])c1 | > 100 | > 100 | > 100 | > 100 | > 100 | > 100 | > 100 | > 100 | > 100 | – | – | – | – | – | – | – | – | – | – | –
17 | CC(=O)Oc1cc2c(cc1OC(C)=O)OCC(c1ccc(C)cc1)C2 (stereo not drawn) | 40.4 | 26.8 | 58.6 | – | 39.1 | 13.6 | 124 | 38.3 | 42.1 | 50.4 | – | – | – | – | – | – | – | – | – | –
18 | C=C[C@@H](C)[C@H](NS(=O)(=O)c1ccc(C)cc1)C(=O)OCC | – | > 100 | > 100 | > 100 | > 100 | – | > 100 | 96.1 | > 100 | 70.6 | – | – | – | – | – | – | – | – | – | –
19 | NS(=O)(=O)c1ccc(/C=C/c2ccc(F)cc2)cc1 | > 100 | > 100 | 67 | > 100 | > 100 | – | > 100 | 61.1 | > 100 | > 100 | 36.3 | 62 | – | 16.3 | – | – | – | – | – | –
20 | COC(OC)[C@@H]1OC[C@H](n2cnc3c(N)ncnc32)[C@H]1O | > 100 | > 100 | > 100 | > 100 | > 100 | > 100 | > 100 | > 100 | > 100 | – | – | – | – | – | – | – | – | – | – | –
21 | CO/N=C1\CC(NC(=O)CNC(=O)OC(C)(C)C)c2ccsc21 (stereo not drawn) | > 100 | > 100 | – | > 100 | > 100 | > 100 | – | > 100 | > 100 | > 100 | – | – | – | – | – | – | – | – | – | –
